Values after ≈ are worked out from the molar mass of the structure shown. Where two headings read alike, the source gives them in different places. Ends that are not written are not given here. Peptide text beside a SMILES is read from it.
What was measured:
TLR3 = TLR3 signaling: IL-6 ELISA in BEAS-2B cells treated with poly(I·C); format: cell-based, human; conditions: for % IL-6 produced compared to controls (SD) TLR3: poly(I·C) […], peptide 2 µM, ELISA, control cells = 100%, mean (SD) of minimum three assays
Description: (§1) Eight cathelicidins produced by eight mammals were selected for an initial examination (Fig. 1A). […] However, the number of charged residues and the lengths of the disordered residues differed (Fig. 1B). The peptides were added to BEAS-2B cells, a human lung epithelial cell line that expresses multiple TLRs and can release proinflammatory cytokines in response to their activation and the enhancement of cytokine release by LL-37 ([15]). BEAS-2B cells treated with the TLR3 agonist poly(I⋅C) and 2 µM LL-37 increased interleukin 6 (IL-6) production by threefold. All of the nonhuman cathelicidins tested had lower TLR3 signaling compared to LL-37 (Fig. 1B). The lack of TLR3 signaling by the nonhuman cathelicidins was due to the inability to use the formyl peptide receptor-like receptor 1 to endocytose the double-stranded RNA (dsRNA)−LL-37 complex and deliver the poly(I⋅C) to TLR3 in endosomes ([17]) (see Fig. S1 in the supplemental material). All of the nonhuman cathelicidins also had reduced activation of TLR9 compared to LL-37 (Fig. 1B).
(§2) FIG 1 Cathelicidins from animals have distinct abilities to act on Toll-like receptor signaling. (A) A phylogenetic relationship of cathelicidins from mammals. The figure is derived from results of Zanetti et al. (12). (B) Names, lengths, and sequences of cathelicidin peptides and their ability to affect Toll-like receptor signaling. The peptide lengths are shown in the numbers of amino acids (AAs). The residues predicted to form an α-helix are underlined with an arrow. The basic, acidic, and aromatic residues are colored blue, red, and green, respectively. TLR signaling was assessed by the amount of IL-6 cytokine produced in BEAS-2B cells. IL-6 levels were quantified using enzyme-linked immunosorbent assay (ELISA), and the level of IL-6 in the control cells is normalized to 100%. The peptides were added to the cells at a final concentration of 2 μM. Each result is the mean of a minimum of three independent assays, and the standard deviations (SD) are shown in parentheses.
(§3) The concentration of IL-6 secreted into the cell medium was quantified using the OptEIA kit (BD Biosciences, San Jose, CA). A typical assay used 1 × 10^4 BEAS-2B cells/well grown for 24 h in flat-bottom 96-well plates. Poly(I⋅C) was added to a final concentration of 0.13 µg/ml for 24 h. ODN2006 was added to 0.5 nM. Lipopolysaccharides were used at 0.5 µg/ml. All data shown are the means and ranges of 1 standard error for a minimum of three independent samples. Data sets were compared using the Student t test calculated with GraphPad Prism 5 software.

TLR4 = TLR4 signaling: IL-6 ELISA in BEAS-2B cells treated with LPS; format: cell-based, human; conditions: for % IL-6 produced compared to controls (SD) TLR4: BEAS-2B cells, LPS 0.5 µg/ml, peptide 2 µM, ELISA, control cells = 100%, mean (SD) of minimum three assays
Description: as §2
LL-37 at 2 µM final concentration reduced IL-6 production to approximately half that of the untreated cells (Fig. 1B).
as §3

TLR9 = TLR9 signaling: IL-6 ELISA in BEAS-2B cells treated with CpG DNA ODN2006; format: cell-based, human; conditions: ODN2006 0.5 nM, peptide 2 µM, control cells = 100%, mean (SD) of minimum three assays
Description: as §1, §2, §3

[1] = strains with MIC of 16 µg/ml or less / strains tested
[2] = broth microdilution, CAMHB, at least three independent assays

Description for 19 Gram-negative strains: (A) Sequences of the cathelicidins, the numbers of bacterial strains killed, and hRBC lysis by the cathelicidins. […] The bacterial species tested are Klebsiella pneumoniae (K. p.), Serratia marcescens (S. m.), Enterobacter cloacae (E. cl.), Escherichia coli (E. c.), and Pseudomonas aeruginosa (P. a.). MICs were determined by the microdilution assay. […] The results are the median values of at least three independent assays.
We tested a panel of cathelicidins for inhibiting growth of 19 Gram-negative strains from the family Enterobacteriaceae and the nonfermentative bacteria. The species tested were Enterobacter cloacae ([2]), Escherichia coli ([5]), Klebsiella pneumoniae ([4]), Pseudomonas aeruginosa ([4]), and Serratia marcescens ([4]). All of the strains selected have been characterized for their antibiotic resistance profiles.
(§4) Antimicrobial activity was determined using the broth microdilution method based on the guidelines of the Clinical and Laboratory Standards Institute (CLSI) ([39]), using cation-adjusted Mueller-Hinton broth (CAMHB) as the testing medium. Reference Gram-positive and Gram-negative bacteria were tested, including both enteric and Pseudomonas aeruginosa strains. Each MIC was determined in at least three independent assays.
Description for Enterobacter cloacae: (§5) The bacterial species tested are Klebsiella pneumoniae (K. p.), Serratia marcescens (S. m.), Enterobacter cloacae (E. cl.), Escherichia coli (E. c.), and Pseudomonas aeruginosa (P. a.). MICs were determined by the microdilution assay. […] The results are the median values of at least three independent assays.
as §4
Description for Escherichia coli: as §5, §4
Description for Klebsiella pneumoniae: as §5, §4
Description for Pseudomonas aeruginosa: as §5, §4
Description for Serratia marcescens: as §5, §4

For CAP-18, the “# strains inhibited at 16 µg/ml peptide S. m.” value (Serratia marcescens; [1]) was 0/3, the “# strains inhibited at 16 µg/ml peptide E. c.” value (Escherichia coli) was 3/6 and the “% IL-6 produced compared to controls (SD) TLR3” value (shortened to “% IL-6 produced … (SD) TLR3”) (TLR3) was 234(30) %. The “No. of strains inhibited at 16 µg/ml/total no. of strains” value (shortened to “No. of strains inhibited”) (19 Gram-negative strains) was 11/19, the “# strains inhibited at 16 µg/ml peptide P. a.” value (Pseudomonas aeruginosa) was 3/4 and the “% IL-6 produced compared to controls (SD) TLR4” value (“% IL-6 produced … (SD) TLR4” below) (TLR4) was 42(13) %. The “# strains inhibited at 16 µg/ml peptide K. p.” value (Klebsiella pneumoniae; [1]) was 4/4, the “# strains inhibited at 16 µg/ml peptide E. cl.” value (Enterobacter cloacae; [1]) was 1/2 and the “% IL-6 produced compared to controls (SD) TLR9” value (“% IL-6 produced … (SD) TLR9” for short) (TLR9) was 121(23) %.
CRAMP was tested, and the “# strains inhibited at 16 µg/ml peptide S. m.” value (Serratia marcescens; [1]) was 0/3, the “# strains inhibited at 16 µg/ml peptide E. c.” value (Escherichia coli) was 1/6 and the “% IL-6 produced … (SD) TLR3” value (TLR3) was 57(10) %. For the same compound, the “No. of strains inhibited” value (19 Gram-negative strains) was 2/19, the “# strains inhibited at 16 µg/ml peptide P. a.” value (Pseudomonas aeruginosa) was 0/4 and the “% IL-6 produced … (SD) TLR4” value (TLR4) was 41(7) %. For the same compound, the “# strains inhibited at 16 µg/ml peptide K. p.” value (Klebsiella pneumoniae; [1]) was 0/4, the “# strains inhibited at 16 µg/ml peptide E. cl.” value (Enterobacter cloacae; [1]) was 1/2 and the “% IL-6 produced … (SD) TLR9” value (TLR9) was 41(7) %.
For `CC[C@H](C)[C@H](NC(=O)[C@H](CCCCN)NC(=O)[C@H](CCC(=O)O)NC(=O)[C@H](CCCCN)NC(=O)[C@@H](NC(=O)[C@H](CCCCN)NC(=O)[C@H](CCCNC(=N)N)NC(=O)[C@H](Cc1ccccc1)NC(=O)[C@H](Cc1ccccc1)NC(=O)[C@H](CC(N)=O)NC(=O)CNC(=O)[C@H](CC(C)C)NC(=O)[C@@H](N)CCCNC(=N)N)C(C)C)C(=O)NCC(=O)NCC(=O)NCC(=O)N[C@@H](CC(C)C)C(=O)N[C@@H](CCCCN)C(=O)N[C@@H](CCCCN)C(=O)N[C@H](C(=O)NCC(=O)N[C@@H](CCC(N)=O)C(=O)N[C@@H](CCCCN)C(=O)N[C@H](C(=O)N[C@@H](CCCCN)C(=O)N[C@@H](CC(=O)O)C(=O)N[C@@H](Cc1ccccc1)C(=O)N[C@@H](CC(C)C)C(=O)NCC(=O)N[C@@H](CC(N)=O)C(=O)N[C@@H](CC(C)C)C(=O)N[C@H](C(=O)N1CCC[C@H]1C(=O)N[C@@H](CCCNC(=N)N)C(=O)N[C@H](C(=O)N[C@@H](C)C(=O)N[C@@H](CO)C(=O)O)[C@@H](C)O)C(C)C)[C@@H](C)CC)C(C)C` [RL-37] (H-RLGNFFRKVKEKIGGGLKKVGQKIKDFLGNLVPRTAS-OH; N-terminus and C-terminus assumed), the “# strains inhibited at 16 µg/ml peptide S. m.” value (Serratia marcescens; [1]) was 0/3, the “# strains inhibited at 16 µg/ml peptide E. c.” value (Escherichia coli) was 2/6 and the “% IL-6 produced … (SD) TLR3” value (TLR3) was 102(18) %. The “No. of strains inhibited” value (19 Gram-negative strains) was 7/19, the “# strains inhibited at 16 µg/ml peptide P. a.” value (Pseudomonas aeruginosa) was 1/4 and the “% IL-6 produced … (SD) TLR4” value (TLR4) was 50(5) %. The “# strains inhibited at 16 µg/ml peptide K. p.” value (Klebsiella pneumoniae; [1]) was 3/4, the “# strains inhibited at 16 µg/ml peptide E. cl.” value (Enterobacter cloacae; [1]) was 1/2 and the “% IL-6 produced … (SD) TLR9” value (TLR9) was 93(19) %.
In the case of “GLRKKFRKTRKRIQKLGRKIGKTGRKVWKAWREYGQIPYPCRI [CAP-11]”, the “# strains inhibited at 16 µg/ml peptide S. m.” value (Serratia marcescens; [1]) is reported as 1/3, the “# strains inhibited at 16 µg/ml peptide E. c.” value (Escherichia coli) is reported as 5/6 and the “% IL-6 produced … (SD) TLR3” value (TLR3) is reported as 148(8) %. The “No. of strains inhibited” value (19 Gram-negative strains; 19 Gram-negative strains, MIC of 16 µg/ml or less) was 16, the “# strains inhibited at 16 µg/ml peptide P. a.” value (Pseudomonas aeruginosa) was 4/4 and the “% IL-6 produced … (SD) TLR4” value (TLR4) was 9(4) %. The “# strains inhibited at 16 µg/ml peptide K. p.” value (Klebsiella pneumoniae; [1]) was 4/4, the “# strains inhibited at 16 µg/ml peptide E. cl.” value (Enterobacter cloacae; [1]) was 2/2 and the “% IL-6 produced … (SD) TLR9” value (TLR9) was 79(10) %.
`CC[C@H](C)[C@H](NC(=O)[C@H](CCCCN)NC(=O)[C@H](CCC(=O)O)NC(=O)[C@H](CCCCN)NC(=O)[C@H](CO)NC(=O)[C@H](CCCCN)NC(=O)[C@H](CCCNC(=N)N)NC(=O)[C@H](Cc1ccccc1)NC(=O)[C@H](Cc1ccccc1)NC(=O)[C@H](CC(=O)O)NC(=O)CNC(=O)[C@H](CC(C)C)NC(=O)[C@@H](N)CC(C)C)C(=O)NCC(=O)N[C@@H](CCCCN)C(=O)N[C@@H](CCC(=O)O)C(=O)N[C@@H](Cc1ccccc1)C(=O)N[C@@H](CCCCN)C(=O)N[C@@H](CCCNC(=N)N)C(=O)N[C@H](C(=O)N[C@H](C(=O)N[C@@H](CCC(N)=O)C(=O)N[C@@H](CCCNC(=N)N)C(=O)N[C@H](C(=O)N[C@@H](CCCCN)C(=O)N[C@@H](CC(=O)O)C(=O)N[C@@H](Cc1ccccc1)C(=O)N[C@@H](CC(C)C)C(=O)N[C@@H](CCCNC(=N)N)C(=O)N[C@@H](CC(N)=O)C(=O)N[C@@H](CC(C)C)C(=O)N[C@H](C(=O)N1CCC[C@H]1C(=O)N[C@@H](CCCNC(=N)N)C(=O)N[C@H](C(=O)N[C@@H](CCC(=O)O)C(=O)N[C@@H](CO)C(=O)O)[C@@H](C)O)C(C)C)[C@@H](C)CC)C(C)C)[C@@H](C)CC` [LL-37] was tested, and the “# strains inhibited at 16 µg/ml peptide S. m.” value (Serratia marcescens) was 0/3, the “MIC S. marcescens 4075” value (Serratia marcescens; [2]) was over 32 µg/mL and the “MIC S. marcescens 4101” value (Serratia marcescens; [2]) was over 32 µg/mL. The “MIC S. marcescens 4104” value (Serratia marcescens; [2]) was over 32 µg/mL, the “MIC S. marcescens 7553” value (Serratia marcescens; [2]) was over 32 µg/mL and the “# strains inhibited at 16 µg/ml peptide E. c.” value (Escherichia coli) was 0/6. The “MIC E. coli ATCC 25922” value (Escherichia coli; [2]) was 32 µg/mL (≈ 7.12 µM), the “MIC E. coli ATCC 35218” value (Escherichia coli; [2]) was 32 µg/mL (≈ 7.12 µM) and the “MIC E. coli IU0342” value (Escherichia coli; [2]) was 32 µg/mL (≈ 7.12 µM). The “MIC E. coli J53 AzideR” value (Escherichia coli; [2]) was over 32 µg/mL, the “MIC E. coli MC4100” value (Escherichia coli; [2]) was over 32 µg/mL and the “% IL-6 produced … (SD) TLR3” value (TLR3) was 389(16) %. For the same compound, the “increase of IL-6 production” value (TLR3; poly(I·C), 2 µM peptide) was “threefold”, the “No. of strains inhibited” value (19 Gram-negative strains) was 0/19 and the “MIC for any/all of the 19 bacterial strains” value (19 Gram-negative strains; statement over all 19 Gram-negative strains) was “at least 32 µg/ml”. For the same compound, the “# strains inhibited at 16 µg/ml peptide P. a.” value (Pseudomonas aeruginosa) was 0/4, the “MIC P. aeruginosa 4083” value (Pseudomonas aeruginosa; [2]) was 32 µg/mL (≈ 7.12 µM) and the “MIC P. aeruginosa ATCC 27853” value (Pseudomonas aeruginosa; [2]) was over 32 µg/mL. For the same compound, the “MIC P. aeruginosa PAO1” value (Pseudomonas aeruginosa; [2]) was 32 µg/mL (≈ 7.12 µM), the “MIC P. aeruginosa PAO1 ΔOprD” value (Pseudomonas aeruginosa; [2]) was 32 µg/mL (≈ 7.12 µM) and the “% IL-6 produced … (SD) TLR4” value (TLR4) was 55(3) %. For the same compound, the “IL-6 production relative to untreated cells” value (TLR4; LPS-induced TLR4 signaling, 2 µM peptide) was “approximately half”, the “# strains inhibited at 16 µg/ml peptide K. p.” value (Klebsiella pneumoniae) was 0/4 and the “MIC K. pneumoniae 4110” value (Klebsiella pneumoniae; [2]) was over 32 µg/mL. For the same compound, the “MIC K. pneumoniae ATCC 700603” value (Klebsiella pneumoniae; [2]) was over 32 µg/mL, the “MIC K. pneumoniae C2” value (Klebsiella pneumoniae; [2]) was over 32 µg/mL and the “MIC K. pneumoniae OC8893” value (Klebsiella pneumoniae; [2]) was over 32 µg/mL. The “# strains inhibited at 16 µg/ml peptide E. cl.” value (Enterobacter cloacae) was 0/2, the “MIC E. cloacae 4080” value (Enterobacter cloacae; [2]) was 32 µg/mL (≈ 7.12 µM) and the “MIC E. cloacae 4092” value (Enterobacter cloacae; [2]) was over 32 µg/mL. For the same compound, the “% IL-6 produced … (SD) TLR9” value (TLR9) was 175(15) %.

From article PMC5030359, “Cathelicidin Antimicrobial Peptides with Reduced Activation of Toll-Like Receptor Signaling Have Potent Bactericidal Activity against Colistin-Resistant Bacteria” (mBio, 2016)
